{"source": "patent US4228160A", "about": "(priority 1978, dated 1980)", "key": {"rat [1]": {"test_system": "rat", "type": "in vivo, rat (Long-Evans strain)", "experimental": "As a reference compound pure Indomethacin is used.\nSubacute toxicity test was carried out in male and female animals derived from Long-Evans strain, 10--10 animals were treated for each test compound and both for female and male animals. At the beginning of the test the animals were 7 week old, of an average bodyweight of 140-160 g. The animals were kept at constant temperature (22°-24° C.) and under constant relative humidity (45-50%). During the treatment the animals were on a standard diet and drank water ad libitum.\nThe subacute toxicity test corresponds to a 4 weeks' treatment period. The animals were treated daily at the same time in the morning. The complex of a molar ratio 1:1 and the reference substance were administered in the form of a suspension in 1% methyl cellulose through an oesophaged sound. The animals of the control group get 1% methyl cellulose per os. The weight increase and the clinical state of the animals were registered during the treatment every week.\n1. Control: 1% methyl cellulose, 0.2 ml./100 g. per os\nThe animals were treated for 28 days. On the 29th day the living animals were exterminated with ether and the stomach and the duodenum were prepared. Also the stomach and duodenum of the animals perished during the treatment were prepared.\nIn each case the mucous membrane of the stomach, bile and intestine were examined macroscopically and the number of the eventual ulcers and erosions was determined."}, "[2]": {"test": "Solubility tests at different pH", "type": "physicochemical", "conditions": "pH=2"}, "[3]": {"conditions": "aqueous solution, cited from earlier work"}, "rat [4]": {"test_system": "rat", "test": "in vivo", "parameters": "species or system rat (CFY strain)", "experimental": "(§1) Subacute toxicity test was carried out in male and female animals derived from CFY strain and 10--10 animals were treated for each substance and for male and female rats each.\n(§2) At the beginning of the investigation the animals were 7 weeks old and weighed 150-170 g. The animals were kept at a constant temperature (22°-24° C.) and under constant relative humidity (45-50%). During treatment the animals were on a standard diet and drank water ad libitum.\n(§3) The animals were treated daily at the same time of the day, in the morning. The test compound and the reference substance were administered in the form of a suspension prepared with 1% methyl cellulose through an oesophagial sound. The animals of the control group obtained 1% methyl cellulose per os. The weight increase of the animals and their clinical states were registered during the treatment every week.\n(§4) 1. Control: 1% methyl cellulose suspension 0.2 ml./100 g. per os;\n(§5) Investigation: the animals were treated for 28 days."}, "in vivo": {"test": "in vivo", "parameters": "species or system rat (CFY strain)", "conditions": "rat, in vivo, po, 5 mg./kg. p.o.", "experimental": "as §1, §2, §3, §4, §5"}, "ovariectomized rat": {"test_system": "ovariectomized rat", "test": "Pregnancy protective activity in the ovariectomized rat", "type": "in vivo, rat (CFY strain)", "conditions": "per os", "excerpt": "Test animal: female rat of an average weight of 308 g., derived from 18 CFY strain\nThe ovary of the animals was removed on the 17th day of pregnancy and the animals were placed individually in cages.\n6 animals were used as control.\nOn the 19th day and 20th day in the morning of the pregnancy the treatment was repeated."}, "[5]": {"test": "Stability in solubility test (thin layer chromatography)", "type": "physicochemical", "conditions": "under the conditions of the solubility tests"}, "[6]": {"test": "Diffusion test through semipermeable membrane", "type": "physicochemical", "source_text": "The two sides of a diffusion cell are separated by a semipermeable membrane."}, "[7]": {"conditions": "cited from earlier work"}, "inflammation": {"test_system": "inflammation", "test": "Speed of onset and duration of antiinflammatory activity, Carrageenin feet inflammation", "type": "in vivo, rat (female, strain CFY)", "conditions": "simultaneous administration with Carrageenin (FIG. 5)", "experimental": "The test compound, the reference substance, the animals, the treatment, doses, investigation are all the same as described above. The differences can be found below.\nIn this series of tests the following investigations were carried out:\n2. Carrageenin was given 1, 2 and 3 hours after the administration of the antiinflammatory agent and the results were evaluated after 3 hours. The animals were exterminated with ether and the weight of the separated untreated feet and feet treated with Carrageenin was measured. The feet were separated above the metacarpus.\nThe weight difference of the untreated and treated feet in the same animal was calculated. […] The antiinflammatory activity was calculated in percent and the results are plotted in FIGS. 4 and 5."}, "[8]": {"conditions": "16 mg./kg. 1:1 complex or 5 mg./kg. Indomethacin p.o., control 0/10"}, "[9]": {"conditions": "28 days, 16 mg./kg 1:1 complex or 5 mg./kg. Indomethacin p.o., control 0/10"}, "[10]": {"conditions": "number related to treated animals, 28 days p.o., 40.3 mg./kg. CD-Ind or 5.0 mg./kg. Ind., control 0/10"}}, "note": "Where two headings read alike, the source gives them in different places."}
{"smiles": "COc1ccc2c(c1)c(CC(=O)O)c(C)n2C(=O)c1ccc(Cl)cc1", "note": "[Indomethacin, 1-(p-Chloro-benzoyl)-5-methoxy-2-methyl-indol-3-acetic acid]", "values": [{"measurement": "animals with ulcers, female", "setting": "rat [1]; 5 mg./kg.", "result": 70, "unit": "%"}, {"measurement": "animals with ulcers, male", "setting": "rat [1]; 5 mg./kg.", "result": 80, "unit": "%"}, {"measurement": "Lethality, 7th day, female", "setting": "rat [1]; [8]", "result": "1/10"}, {"measurement": "Lethality, 7th day, male", "setting": "rat [1]; [8]", "result": "4/10"}, {"measurement": "Lethality, 14th day, female", "setting": "rat [1]; [8]", "result": "2/10"}, {"measurement": "Lethality, 14th day, male", "setting": "rat [1]; [8]", "result": "4/10"}, {"measurement": "Lethality, 21st day, female", "setting": "rat [1]; [8]", "result": "3/10"}, {"measurement": "Lethality, 21st day, male", "setting": "rat [1]; [8]", "result": "5/10"}, {"measurement": "Lethality, 28th day, female", "setting": "rat [1]; [8]", "result": "6/10"}, {"measurement": "Lethality, 28th day, male", "setting": "rat [1]; [8]", "result": "6/10"}, {"measurement": "ulcer, female", "setting": "rat [1]; [9]", "result": "7/10"}, {"measurement": "ulcer, male", "setting": "rat [1]; [9]", "result": "8/10"}, {"measurement": "erosion, female", "setting": "rat [1]; 28 days, 16 mg./kg 1:1 complex or 5 mg./kg. Indomethacin p.o., control 2/10", "result": "10/10"}, {"measurement": "erosion, male", "setting": "rat [1]; 28 days, 16 mg./kg 1:1 complex or 5 mg./kg. Indomethacin p.o., control 3/10", "result": "10/10"}, {"measurement": "clinical symptoms", "setting": "rat [1]; from third day, 5 mg./kg. Indomethacin or 16 mg./kg. 1:1 complex", "result": "bradypnoe and depression"}, {"measurement": "solubility", "setting": "[2]", "result": "substantially insoluble"}, {"measurement": "hydrolysis", "setting": "[3]; in the presence of glucose", "result": "hydrolyses rapidly"}, {"measurement": "hydrolysis", "setting": "[3]; in the presence of α-cyclodextrin", "result": "slowly"}, {"measurement": "hydrolysis", "setting": "[3]; in the presence of β-cyclodextrin", "result": "inhibits hydrolysis"}, {"measurement": "erosion, female", "setting": "rat [4]; [10]", "result": "7/10"}, {"measurement": "ulcer, female", "setting": "rat [4]; [10]", "result": "6/10"}, {"measurement": "ulcer, male", "setting": "rat [4]; [10]", "result": "7/10"}, {"measurement": "erosion, male", "setting": "rat [4]; number related to treated animals, 28 days p.o., 40.3 mg./kg. CD-Ind or 5.0 mg./kg. Ind., control 1/10", "result": "9/10"}, {"measurement": "Average body weight", "setting": "rat [4]; week 0, control 152.5", "result": 164.5, "unit": "g"}, {"measurement": "Average body weight", "setting": "rat [4]; week 0, control 154.5", "result": 161.5, "unit": "g"}, {"measurement": "Average body weight", "setting": "rat [4]; week 1, control 183.0", "result": 182.0, "unit": "g"}, {"measurement": "Average body weight", "setting": "rat [4]; week 1, control 196.5", "result": 210.7, "unit": "g"}, {"measurement": "Average body weight", "setting": "rat [4]; week 2, control 209.0", "result": 177.5, "unit": "g"}, {"measurement": "Average body weight", "setting": "rat [4]; week 2, control 240.5", "result": 212.5, "unit": "g"}, {"measurement": "Average body weight", "setting": "rat [4]; week 3, control 222.0", "result": 206.5, "unit": "g"}, {"measurement": "Average body weight", "setting": "rat [4]; week 3, control 276.5", "result": 287.5, "unit": "g"}, {"measurement": "Average body weight", "setting": "rat [4]; week 4, control 241.0", "result": 221.2, "unit": "g"}, {"measurement": "Average body weight", "setting": "rat [4]; week 4, control 300.5", "result": 320.0, "unit": "g"}, {"measurement": "mortality at 336 h", "setting": "in vivo; by the 14th day, read-out: dead animals, male", "result": 80, "unit": "%"}, {"measurement": "mortality at 504 h", "setting": "in vivo; by the 21st day, read-out: dead animals, female", "result": 60, "unit": "%"}, {"measurement": "foetus retention compared with the control", "setting": "ovariectomized rat", "result": "significantly increased the percentage of the foetus retention"}, {"measurement": "foeti left alive", "setting": "ovariectomized rat; 1.25 mg./kg. Indomethacin on 18th day, repeated 19th and 20th day, dissected 21st day, control 16.1%", "result": 58.8, "unit": "%"}, {"measurement": "decomposition of Indomethacin", "setting": "[5]", "result": "not decomposed"}, {"measurement": "time to equilibrium", "setting": "[6]; pure buffer on other side", "result": 4, "unit": "h"}, {"measurement": "distribution of Indomethacin", "setting": "[6]; β-cyclodextrin buffer solution on other side, 4 hours", "result": "more Indomethacin on the β-cyclodextrin side after 4 hours, than on the Indomethacin side"}, {"measurement": "original solubility", "setting": "[7]; 35° C., aqueous, without cyclodextrin", "result": 350, "unit": "µM"}, {"measurement": "solubility increased by cyclodextrin", "setting": "[7]; aqueous solution with cyclodextrin", "result": 980, "unit": "µM"}, {"measurement": "solubility increase", "setting": "[7]; with cyclodextrin vs original", "result": 2.8, "unit": "times"}, {"measurement": "antiinflammatory activity 6 hours after treatment", "setting": "inflammation", "result": "inflammation increases after 6 hours"}]}
